According to patent US20250281483A1, “TRANSCRIPTION FACTOR EB ACTIVATORS AND USES THEREOF” (Astellas Engineered Small Molecules US, Incorporated, priority 2022, published 2025):

What follows are molecules tested against T1, TFEB (Homo sapiens, UniProt P19484) (assay: Tfeb-Translocation Assay HEK-293T-oEX-Tfeb-GFP Cell Line). Conditions: HEK-293T-oEX-TFEB-GFP cells; translocation positive cells ratio; read-out: TFEB Translocation EC50.
T1 sequence (P19484 1-476): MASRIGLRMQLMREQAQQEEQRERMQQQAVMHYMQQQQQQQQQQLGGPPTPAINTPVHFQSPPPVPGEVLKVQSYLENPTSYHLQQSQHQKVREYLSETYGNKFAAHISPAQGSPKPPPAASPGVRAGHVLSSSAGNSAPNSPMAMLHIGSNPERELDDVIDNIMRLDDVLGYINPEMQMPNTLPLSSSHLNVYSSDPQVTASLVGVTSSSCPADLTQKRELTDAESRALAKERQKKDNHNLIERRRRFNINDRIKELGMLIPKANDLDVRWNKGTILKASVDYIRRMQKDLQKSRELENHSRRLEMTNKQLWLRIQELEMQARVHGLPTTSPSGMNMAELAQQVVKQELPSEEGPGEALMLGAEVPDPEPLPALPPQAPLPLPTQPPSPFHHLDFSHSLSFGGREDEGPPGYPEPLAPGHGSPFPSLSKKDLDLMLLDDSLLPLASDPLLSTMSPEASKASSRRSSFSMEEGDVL
Assay type: cell-based
Method: Tfeb-Translocation Assay HEK-293T-oEX-Tfeb-GFP Cell Line
• 1). Added 2×10^6 cell into a T75 flask with 15 mL DiVEM medium (with 10% FBS, 1% PS, 1×GLUTAMAX, 1×MEM NEAA, 1×HEPES Buffer Solution and 5 ug/mL blasticidin). • 2). Culturing for 48-72 hours. Cells in logarithmic growth phase were taken for experiment. The other cells were passaged as described in step 1. • 3). Seeded 1×10^4 cells/30 μL/well into 384-well plate (BD 356663). Cultured overnight at 37° C. & 5% CO2 incubator. • 4). Note: Used cells <10 passage
• 1). Compounds were firstly diluted by DMSO to the stock needed (10 mM), and aliquoted and stored at −20° C. • 2). Took one aliquot each time and made 3-fold or 2-fold dilutions as indicated, total 10 doses plus one DMSO control well in the source plate. • 3). Added 150 or 90 nL/well compounds solution to the assay plate by ECHO and incubated for 6 or 18 hours respectively at 37° C. & 5% CO2 incubator.
• 1). Added 30 uL 8% PFA into the wells and incubated 20 min at room temperature. • 2). Discarded the medium, washed the wells twice with DPBS to eliminate foam and bubbles in the well.
• 1). Diluted Hoechest-333824 in DPBS to get 2 μg/mL solution and added 30 uL/well into assay plate, incubated at room temperature for 20 mins. • 2). Discarded the supernatant, washed the wells twice with DPBS to eliminate foam and bubbles in the well. Then added DPBS 20 uL/well.
3). Scanned Plate by Operetta.
• 1). Reference compound: Torin 1 • 2). Test compounds: C1, C2, C3, C4, C5, C6. • 3). Diluted compounds in 384 LDV-dilution plate according to the dilution plate map • 4). Compounds starting concentration: Torin 1: 300 nM and Test compounds: 50 uM.
• 1). Selected all nucleus by Operetta as ‘All Cells’ • 2). Calculated the EGFP average intensity inside the Nucleus region. • 3). Selected population that the EGFP mean intensity inside the Nucleus region>background as the EGFP-positive cells • 4). Selected the Surrounding region of the nucleus and calculated the EGFP mean intensity of the region • 5). Inside the EGFP-positive cell population, selected the cells with EGFP mean intensity inside the Nucleus region/the EGFP mean intensity inside the surrounding region=1.2 (This ratio could be slightly adjusted from time to time) as the Translocation positive cell. • 6). Outputted the ratio of Translocation positive cell/EGFP-positive cells as the Translocation Positive Ratio. • 7). Each time set the ratio of DMSO group (Control Group) as ˜15% and then normalized the compound group to the DMSO group.

Molecule	EC50 [µM]
6-benzyl-2-methyl-N-((4-methyloxazol-2-yl)methyl)-5-oxo-5,6-dihydro-1,6-naphthyridine-3-carboxamide [Example 66]	0.1 to 1
Cc1nc2ccn(Cc3cccnc3)c(=O)c2cc1C(=O)NCc1ccc(Cl)cc1 [Comparator 1, reference compound]	1 to 10
Cc1ccc(CNC(=O)c2cc3c(=O)n(Cc4ccc(F)cn4)ccc3nc2C)o1 [Example 2, 6-((5-fluoropyridin-2-yl)methyl)-2-methyl-N-((5-methylfuran-2-yl)methyl)-5-oxo-5,6-dihydro-1,6-naphthyridine-3-carboxamide]	0.1 to 1
Cc1cnc(CNC(=O)c2cc3c(=O)n(Cc4ccccc4)ccc3nc2C)o1 [Example 3, 6-benzyl-2-methyl-N-((5-methyloxazol-2-yl)methyl)-5-oxo-5,6-dihydro-1,6-naphthyridine-3-carboxamide]	0.1 to 1
Cc1ncc(CNC(=O)c2cc3c(=O)n(Cc4ccccc4)ccc3nc2C)o1 [Example 4, 6-benzyl-2-methyl-N-((2-methyloxazol-5-yl)methyl)-5-oxo-5,6-dihydro-1,6-naphthyridine-3-carboxamide]	0.1 to 1
Cc1nc2ccn(Cc3ccccc3)c(=O)c2cc1C(=O)NCc1cn(C)nn1 [Example 8, 6-benzyl-2-methyl-N-((1-methyl-11H-1,2,3-triazol-4-yl)methyl)-5-oxo-5,6-dihydro-1,6-naphthyridine-3-carboxamide]	1 to 10
Cc1nc2ccn(Cc3ccccc3)c(=O)c2cc1C(=O)NCc1cnn(C)n1 [Example 9, 6-benzyl-2-methyl-N-((2-methyl-2H-1,2,3-triazol-4-yl)methyl)-5-oxo-5,6-dihydro-1,6-naphthyridine-3-carboxamide]	0.1 to 1
Cc1noc(CNC(=O)c2cc3c(=O)n(Cc4ccccc4)ccc3nc2C)n1 [Example 10, 6-benzyl-2-methyl-N-((3-methyl-1,2,4-oxadiazol-5-yl)methyl)-5-oxo-5,6-dihydro-1,6-naphthyridine-3-carboxamide]	0.1 to 1
Cc1nc2ccn(CC3CCCO3)c(=O)c2cc1C(=O)NCc1ccc(Cl)cc1 (centres unmarked) [Example 11, N-(4-chlorobenzyl)-2-methyl-5-oxo-6-((tetrahydrofuran-2-yl)methyl)-5,6-dihydro-1,6-naphthyridine-3-carboxamide]	1 to 10
Cc1nc2ccn(Cc3ccccc3)c(=O)c2cc1C(=O)NCc1ccncc1 [Example 12, 6-benzyl-2-methyl-5-oxo-N-(pyridin-4-ylmethyl)-5,6-dihydro-1,6-naphthyridine-3-carboxamide]	1 to 10
Cc1nnc(CNC(=O)c2cc3c(=O)n(Cc4ccccc4)ccc3nc2C)o1 [Example 13, 6-benzyl-2-methyl-N-((5-methyl-1,3,4-oxadiazol-2-yl)methyl)-5-oxo-5,6-dihydro-1,6-naphthyridine-3-carboxamide]	1 to 10
Cc1nc2ccn(Cc3ccccc3)c(=O)c2cc1C(=O)NCc1ccn(C)n1 [Example 14, 6-benzyl-2-methyl-N-((1-methyl-1H-pyrazol-3-yl)methyl)-5-oxo-5,6-dihydro-1,6-naphthyridine-3-carboxamide]	0.1 to 1
Cc1nc2ccn(Cc3ccccc3)c(=O)c2cc1C(=O)NCc1cnn(C)c1 [Example 15, 6-benzyl-2-methyl-N-((1-methyl-1H-pyrazol-4-yl)methyl)-5-oxo-5,6-dihydro-1,6-naphthyridine-3-carboxamide]	0.1 to 1
Cc1nc2ccn(Cc3ccccc3)c(=O)c2cc1C(=O)NCc1ccccc1F [Example 16, 6-benzyl-N-(2-fluorobenzyl)-2-methyl-5-oxo-5,6-dihydro-1,6-naphthyridine-3-carboxamide]	0.1 to 1
Cc1nc(CNC(=O)c2cc3c(=O)n(Cc4ccccc4)ccc3nc2C)no1 [Example 19, 6-benzyl-2-methyl-N-((5-methyl-1,2,4-oxadiazol-3-yl)methyl)-5-oxo-5,6-dihydro-1,6-naphthyridine-3-carboxamide]	1 to 10
COCCn1ccc2nc(C)c(C(=O)NCc3ccc(Cl)cc3)cc2c1=O [Example 20, N-(4-chlorobenzyl)-6-(2-methoxyethyl)-2-methyl-5-oxo-5,6-dihydro-1,6-naphthyridine-3-carboxamide]	1 to 10
COCCn1ccc2nc(C)c(C(=O)NCc3cnc(C)o3)cc2c1=O [Example 21, 6-(2-methoxyethyl)-2-methyl-N-((2-methyloxazol-5-yl)methyl)-5-oxo-5,6-dihydro-1,6-naphthyridine-3-carboxamide]	≥ 10
Cc1nc2ccn(Cc3ccccc3)c(=O)c2cc1C(=O)NCc1ccc(Cl)cc1 [Example 22, 6-benzyl-N-(4-chlorobenzyl)-2-methyl-5-oxo-5,6-dihydro-1,6-naphthyridine-3-carboxamide]	< 0.1
Cc1nc2ccn(Cc3ccccc3)c(=O)c2cc1C(=O)NCc1cccnc1 [Example 23, 6-benzyl-2-methyl-5-oxo-N-(pyridin-3-ylmethyl)-5,6-dihydro-1,6-naphthyridine-3-carboxamide]	0.1 to 1
COc1ccc(CNC(=O)c2cc3c(=O)n(Cc4ccccc4)ccc3nc2C)cc1 [Example 24, 6-benzyl-N-(4-methoxybenzyl)-2-methyl-5-oxo-5,6-dihydro-1,6-naphthyridine-3-carboxamide]	1 to 10
Cc1nc2ccn(Cc3ccccc3)c(=O)c2cc1C(=O)NCc1ccc(C(F)(F)F)cc1 [Example 25, 6-benzyl-2-methyl-5-oxo-N-(4-(trifluoromethyl)benzyl)-5,6-dihydro-1,6-naphthyridine-3-carboxamide]	≥ 10
Cc1nc2ccn(CC3CCCCO3)c(=O)c2cc1C(=O)NCc1ccc(Cl)cc1 (centres unmarked) [Example 26, N-(4-chlorobenzyl)-2-methyl-5-oxo-6-((tetrahydro-2H-pyran-2-yl)methyl)-5,6-dihydro-1,6-naphthyridine-3-carboxamide]	0.1 to 1
Cc1nc2ccn(CC3CCO3)c(=O)c2cc1C(=O)NCc1ccc(Cl)cc1 (centres unmarked) [Example 27, N-(4-chlorobenzyl)-2-methyl-6-(oxetan-2-ylmethyl)-5-oxo-5,6-dihydro-1,6-naphthyridine-3-carboxamide]	1 to 10
Cc1nc2ccn(Cc3ccccc3)c(=O)c2cc1C(=O)NC(C)c1ccccn1 (centres unmarked) [Example 28, 6-benzyl-2-methyl-5-oxo-N-(1-(pyridin-2-yl)ethyl)-5,6-dihydro-1,6-naphthyridine-3-carboxamide]	≥ 10
Cc1nc2ccn(Cc3ccccc3)c(=O)c2cc1C(=O)NCc1ncccn1 [Example 29, 6-benzyl-2-methyl-5-oxo-N-(pyrimidin-2-ylmethyl)-5,6-dihydro-1,6-naphthyridine-3-carboxamide]	≥ 10
COCCn1ccc2nc(C)c(C(=O)NCc3ccccn3)cc2c1=O [Example 30, 6-(2-methoxyethyl)-2-methyl-5-oxo-N-(pyridin-2-ylmethyl)-5,6-dihydro-1,6-naphthyridine-3-carboxamide]	1 to 10
Cc1nc2ccn(Cc3ccccc3)c(=O)c2cc1C(=O)NCc1cnccn1 [Example 32, 6-benzyl-2-methyl-5-oxo-N-(pyrazin-2-ylmethyl)-5,6-dihydro-1,6-naphthyridine-3-carboxamide]	0.1 to 1
Cc1nc2ccn(Cc3ccccc3)c(=O)c2cc1C(=O)NCc1cccnn1 [Example 33, 6-benzyl-2-methyl-5-oxo-N-(pyridazin-3-ylmethyl)-5,6-dihydro-1,6-naphthyridine-3-carboxamide]	1 to 10
Cc1nc2ccn(Cc3ccccc3)c(=O)c2cc1C(=O)NCc1cncnc1 [Example 34, 6-benzyl-2-methyl-5-oxo-N-(pyrimidin-5-ylmethyl)-5,6-dihydro-1,6-naphthyridine-3-carboxamide]	0.1 to 1
